According to PMC3681608 (Nature chemical biology, 2010):
Structures can show the parent of a compound that is named as a salt.

Key:
[1] = molecular target: CK1γ1 (Homo sapiens, UniProt Q9HCP0); test: fluorescence ligand dot blot with purified kinase at […] pyrvinium; assay type: binding
[2] = molecular target: CK1ε (Homo sapiens, UniProt P49674); test: as above; assay type: binding
CK1ε, sequence (P49674 whole entry): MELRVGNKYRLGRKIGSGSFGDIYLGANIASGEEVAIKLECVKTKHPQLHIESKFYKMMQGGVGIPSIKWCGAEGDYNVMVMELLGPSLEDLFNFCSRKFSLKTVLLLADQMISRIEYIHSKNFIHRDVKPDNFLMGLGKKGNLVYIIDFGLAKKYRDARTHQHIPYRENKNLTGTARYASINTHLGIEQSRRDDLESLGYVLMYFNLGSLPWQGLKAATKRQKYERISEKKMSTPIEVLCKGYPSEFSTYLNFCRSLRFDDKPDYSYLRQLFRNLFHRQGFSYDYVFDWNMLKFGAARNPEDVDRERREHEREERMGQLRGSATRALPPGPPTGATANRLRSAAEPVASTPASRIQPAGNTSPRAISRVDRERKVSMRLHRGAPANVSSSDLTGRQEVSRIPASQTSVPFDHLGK

CK1γ1, sequence (Q9HCP0 whole entry): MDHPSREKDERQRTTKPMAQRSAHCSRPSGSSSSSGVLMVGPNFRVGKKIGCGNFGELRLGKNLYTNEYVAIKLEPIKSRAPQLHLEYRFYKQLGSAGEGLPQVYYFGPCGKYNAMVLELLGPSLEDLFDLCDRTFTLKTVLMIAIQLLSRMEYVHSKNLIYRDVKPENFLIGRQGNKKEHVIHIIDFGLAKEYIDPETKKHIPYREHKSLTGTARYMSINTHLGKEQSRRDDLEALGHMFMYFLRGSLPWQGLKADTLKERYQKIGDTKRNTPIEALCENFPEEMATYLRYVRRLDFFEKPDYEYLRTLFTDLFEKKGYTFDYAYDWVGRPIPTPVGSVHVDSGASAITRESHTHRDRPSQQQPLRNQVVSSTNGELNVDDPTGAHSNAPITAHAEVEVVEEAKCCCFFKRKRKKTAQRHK

SMILES: Cc1cc(/C=C/c2ccc3cc(N(C)C)ccc3[n+]2C)c(C)n1-c1ccccc1 [compound 1, 6-(dimethylamino)-2-[2-(2,5-dimethyl-1-phenyl-1H-pyrrol-3-yl)ethenyl]-1-me thyl-quinolinium pamoate salt]
- fluorescence ligand dot blot with purified kinase at 10 nM pyrvinium [1]: Pyrvinium binds all full-length CK1 isoforms tested but only activates CK1α.
- fluorescence ligand dot blot with purified kinase at 10 nM pyrvinium [2]: Pyrvinium binds all full-length CK1 isoforms tested but only activates CK1α.
